Patent US8063225B2, “Tricyclic compound derivatives useful in the treatment of neoplastic diseases, inflammatory disorders and immunomodulatory disorders” (Chembridge Corporation, priority 2006, dated 2011)

Tests used:
Assay type in all cases: cell-based
[1] = tested on: HEK293 (human normal embryonic kidney); assay: Cell proliferation inhibition, Cell Titer-Glo, HEK293; conditions: cell proliferation assay, HEK293 cells, read-out: HEK 293 IC50
Method: (§1) IGF1R and other tyrosine kinase inhibitors can inhibit the proliferation of certain cancer cell lines indicating their possible therapeutic utility for treating the corresponding cancer types. Cancer cell lines of interest and control normal lines, including CHO, HEK293, BA/F3, MM1, H929, COLO205, PC3, DU145, MCF7, Panc1, ACHN, Hep G2, H460, K562, TT, U87-G, CAOV-3, SK-MEL5, Karpas 299, are plated in white, clear-bottomed 384-well cell culture plates at 2500-5000 cells per well and supplied with dilutions of tested compounds After a desired period of time (typically 3 days), the number of viable cells is quantitated by using Cell Titer-Glo Luminescent Cell Viability Assay (Promega), a cell proliferation assay system based on detection of total amount of ATP present as a measure of cell metabolic activity. The plated cells are mixed with the Cell Titer-Glo developing reagent and counted in a luminescence multiwell plate reader according to the standard manufacturer's protocol to generate IC50 curves for cell proliferation inhibition.
(§2) IGF1R and other tyrosine kinase inhibitors can inhibit the proliferation of certain cancer cell lines indicating their possible therapeutic utility for treating the corresponding cancer types. Cancer cell lines of interest and control normal lines, including CHO, HEK293, BA/F3, COLO205, PC3, DU145, MCF7, Panc1, ACHN, Hep G2, H460, K562, TT, U87-MG, CAOV-3, SK-MEL5, Karpas 299 and human multiple myeloma cell lines H929, MM1s, MM1r, UTMC2, CPM2, KMS11, My5, KMS12PE, My7, JJN3, KMS18, U266, SKMM2, RPMI-8226 are plated in white, clear-bottomed 384-well cell culture plates at 2500-5000 cells per well and supplied with dilutions of tested compounds After a desired period of time (typically 3 days), the number of viable cells is quantitated by using Cell Titer-Glo Luminescent Cell Viability Assay (Promega), a cell proliferation assay system based on detection of total amount of ATP present as a measure of cell metabolic activity. The plated cells are mixed with the Cell Titer-Glo developing reagent and counted in a luminescence multiwell plate reader according to the standard manufacturer's protocol to generate IC50 curves for cell proliferation inhibition. Results are typically reported as percent of growth (% viability =(OD72h(compound)−ODday0))/(OD72h(no compound)−ODday0). Alternatively, viable cells are quantitated by using the conventional colorimetric MTT assay. The MTT assay is based on the cleavage of the yellow tetrazolium salt MTT to purple formazan crystal by metabolic active cells. The formazan is then solubilized, and the concentration determined by optical density at 570 nm. The cells plated and incubated with a compound as described above are supplemented with the solution of MTT and incubated for 2-3 hours. The growth medium is removed and dimethyl sulfoxide is added into each well to dissolve the formazan. The absorbance is measured on an ELISA plate reader with a test wavelength of 570 nm and a background subtraction wavelength of 630 nm to obtain sample signal (OD570-OD630). […] The results are reported in terms of IC50 value for a particular compound and a cell line in the standard 3-day proliferation assay using Cell Titer-Glo. […] The results are reported in terms of IC50 value for a particular compound and a cell line in the standard 3-day proliferation assay using MTT assay.

[2] = tested on: K562; assay: Cell proliferation inhibition, Cell Titer-Glo, K562; conditions: Homo sapiens; cell proliferation assay, K562 cells
Method in brief: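 Proliferation inhibition in human K562 cells was assessed in a standard 3-day assay. Cells (2500-5000 per well) in 384-well white, clear-bottomed plates received serial compound dilutions, then Cell Titer-Glo reagent was added per the manufacturer's protocol. Luminescence reflecting ATP content of metabolically active cells was counted in a multiwell reader, and IC50 curves were generated.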

[3] = tested on: CHO (chinese hamster ovary); assay: Cell proliferation inhibition, Cell Titer-Glo, CHO; conditions: Cricetulus griseus; cell proliferation assay, CHO cells
Method: as §1, §2

Row | IC50 [2] [µM] | SMILES | IC50 [1] [µM] | IC50 [3] [µM]
1 | 5 to 15 | CN1CCC(N2C(=O)c3cc4nc(-c5c(NC[C@@H](O)COc6c(F)ccc(Cl)c6F)cc[nH]c5=O)[nH]c4cc3C2=O)CC1 [compound 95] | 5 to 15 | –
2 | > 15 | Cc1ccc(OC[C@@H](O)CNc2cc[nH]c(=O)c2-c2nc3cc4c(cc3[nH]2)C(=O)N([C@@H]2CCN(C)C2)C4=O)c(C)c1 [compound 107] | – | –
3 | > 15 | Cc1ccc(OC[C@H](O)CNc2cc[nH]c(=O)c2-c2nc3cc4c(cc3[nH]2)C(=O)N(C2CCN(C)CC2)C4=O)cc1Cl [compound 99] | – | –
4 | > 15 | CN1CCC(N2C(=O)c3cc4nc(-c5c(NC[C@@H](O)COc6cccc(Cl)c6F)cc[nH]c5=O)[nH]c4cc3C2=O)CC1 [compound 96] | – | –
5 | 5 to 15 | Cc1ccc(OC[C@H](O)CNc2cc[nH]c(=O)c2-c2nc3c(C)c4c(cc3[nH]2)C(=O)N(C2CCN(C)CC2)C4=O)c(C)c1 [compound 110] | – | –
6 | > 15 | Cc1c(Cl)cccc1OC[C@H](O)CNc1cc[nH]c(=O)c1-c1nc2cc3c(cc2[nH]1)C(=O)N(C1CCN(C)CC1)C3=O [compound 94] | > 15 | –
7 | > 15 | CCN1CCC(N2Cc3cc4nc(-c5c(NC[C@@H](O)COc6ccc(C)cc6C)cc[nH]c5=O)[nH]c4cc3C2=O)CC1 [compound 144] | 5 to 15 | 5 to 15
8 | 5 to 15 | Cc1ccc(OC[C@@H](O)CNc2cc[nH]c(=O)c2-c2nc3cc4c(cc3[nH]2)C(=O)N([C@H]2CCN(C)C2)C4=O)c(C)c1 [compound 106] | – | –
9 | > 15 | Cc1ccc(OC[C@H](O)CNc2cc[nH]c(=O)c2-c2nc3c(C)c4c(cc3[nH]2)C(=O)N(C2CCN(C)CC2)C4)c(C)c1 [compound 139] | > 15 | > 15
10 | > 15 | COc1ccc(OC[C@H](O)CNc2cc[nH]c(=O)c2-c2nc3cc4c(cc3[nH]2)C(=O)N(C2CCN(C)CC2)C4=O)c(OC)c1OC [compound 93] | 5 to 15 | –
11 | > 15 | CN1CCC(N2C(=O)c3cc4nc(-c5c(NC[C@@H](O)COc6cccc(C(F)(F)F)c6)cc[nH]c5=O)[nH]c4cc3C2=O)CC1 [compound 97] | > 15 | –
12 | > 15 | Cc1ccc(OC[C@H](O)CNc2cc[nH]c(=O)c2-c2nc3cc4c(c(C)c3[nH]2)CN(C2CCN(C)CC2)C4=O)c(C)c1 [compound 132] | > 15 | > 15
13 | > 15 | Cc1ccc(Cl)c(C)c1OC[C@H](O)CNc1cc[nH]c(=O)c1-c1nc2cc3c(cc2[nH]1)C(=O)N(C1CCN(C)CC1)C3=O [compound 111] | – | –
14 | 5 to 15 | Cc1ccc(OC[C@H](O)CNc2cc[nH]c(=O)c2-c2nc3c(C)c4c(cc3[nH]2)CN(C2CCN(C)CC2)C4=O)c(C)c1 [compound 140] | 5 to 15 | > 15
15 | > 15 | Cc1ccc(OC[C@H](O)CNc2cc[nH]c(=O)c2-c2nc3cc4c(cc3[nH]2)CN(C2CCN(C)CC2)C4=O)c(C)c1 [compound 130] | > 15 | > 15
16 | > 15 | Cc1cc(C)c(OC[C@H](O)CNc2cc[nH]c(=O)c2-c2nc3cc4c(cc3[nH]2)C(=O)N(C2CCN(C)CC2)C4=O)c(C)c1 [compound 98] | – | –
17 | 5 to 15 | Cc1ccc(OC[C@H](O)CNc2cc[nH]c(=O)c2-c2nc3cc4c(cc3[nH]2)C(=O)N(C2CCNCC2)C4=O)c(C)c1 [compound 142] | 5 to 15 | 5 to 15
18 | > 15 | CCc1cc(C)ccc1OC[C@H](O)CNc1cc[nH]c(=O)c1-c1nc2cc3c(cc2[nH]1)CN(C1CCN(C)CC1)C3=O [compound 141] | > 15 | > 15

Further lines, the molecule ahead of its results:

Row | SMILES | IC50 [2] [µM] | IC50 [1] [µM] | IC50 [3] [µM]
19 | CN1CCC(N2C(=O)c3cc4nc(-c5c(NC[C@@H](O)c6cccc(Cl)c6)cc[nH]c5=O)[nH]c4cc3C2=O)CC1 [compound 1] | 5 to 15 | 5 to 15 | –
20 | O=C1c2cc3nc(-c4c(NC[C@@H](O)c5cccc(Cl)c5)cc[nH]c4=O)[nH]c3cc2C(=O)N1C[C@@H]1CCCO1 [compound 29] | 0.5 to 5 | – | –
21 | Cc1ccc(OC[C@H](O)CNc2cc[nH]c(=O)c2-c2nc3cc4c(cc3[nH]2)C(=O)N(C2CCN(C)CC2)C4=O)c(C)c1 [compound 59] | 5 to 15 | 5 to 15 | –
22 | O=C1c2cc3nc(-c4c(NC[C@@H](O)c5cccc(Cl)c5)cc[nH]c4=O)[nH]c3cc2C(=O)N1[C@@H]1CN2CCC1CC2 [compound 33] | 0.5 to 5 | – | –
23 | Cc1ncsc1CCN1C(=O)c2cc3nc(-c4c(NC[C@@H](O)c5cccc(Cl)c5)cc[nH]c4=O)[nH]c3cc2C1=O [compound 32] | > 15 | – | –
24 | Cc1ccc(OCC(O)CNc2cc[nH]c(=O)c2-c2nc3cc4c(cc3[nH]2)C(=O)N(CC2CCN(CCO)CC2)C4=O)c(C)c1 (stereo not drawn) [compound 37] | > 15 | – | –
25 | Cc1ccc(OC[C@@H](O)CNc2cc[nH]c(=O)c2-c2nc3cc4c(cc3[nH]2)C(=O)N(C2CCN(C)CC2)C4=O)c(C)c1 [compound 64] | 5 to 15 | – | –
26 | O=C1c2cc3nc(-c4c(NC[C@@H](O)c5cccc(Cl)c5)cc[nH]c4=O)[nH]c3cc2C(=O)N1CCc1ccncc1 [compound 28] | > 15 | – | –
27 | CN1CCC(N2C(=O)c3cc4nc(-c5c(NC[C@@H](O)COc6cccc(-c7ccccc7)c6)cc[nH]c5=O)[nH]c4cc3C2=O)CC1 [compound 89] | 5 to 15 | – | –
28 | CC(C)(CO)CN1C(=O)c2cc3nc(-c4c(NC[C@@H](O)c5cccc(Cl)c5)cc[nH]c4=O)[nH]c3cc2C1=O [compound 26] | 5 to 15 | – | –
29 | Cc1cc(C)c(OC[C@H](O)CNc2cc[nH]c(=O)c2-c2nc3cc4c(cc3[nH]2)C(=O)N(C2CCN(C)CC2)C4=O)cc1Cl [compound 108] | – | 5 to 15 | –
30 | C[C@H](O)CN1C(=O)c2cc3nc(-c4c(NC[C@@H](O)c5cccc(Cl)c5)cc[nH]c4=O)[nH]c3cc2C1=O [compound 31] | 5 to 15 | 5 to 15 | –
31 | CN1CCC(N2C(=O)c3cc4nc(-c5c(NC[C@@H](O)COc6cccc(OC(F)(F)C(F)F)c6)cc[nH]c5=O)[nH]c4cc3C2=O)CC1 [compound 91] | > 15 | – | –
32 | CCN1CCC(N2C(=O)c3cc4nc(-c5c(NC[C@@H](O)COc6ccc(C)cc6C)cc[nH]c5=O)[nH]c4cc3C2=O)CC1 [compound 143] | – | > 15 | > 15
33 | CN1CCC(N2C(=O)c3cc4nc(-c5c(NC[C@@H](O)COc6ccc7ccccc7c6)cc[nH]c5=O)[nH]c4cc3C2=O)CC1 [compound 88] | 5 to 15 | – | –
34 | CN1CCC(N2C(=O)c3cc4nc(-c5c(NC[C@@H](O)COc6cccc7ccccc67)cc[nH]c5=O)[nH]c4cc3C2=O)CC1 [compound 87] | 5 to 15 | – | –
35 | O=C1c2cc3nc(-c4c(NC[C@@H](O)c5cccc(Cl)c5)cc[nH]c4=O)[nH]c3cc2C(=O)N1[C@H]1CN2CCC1CC2 [compound 34] | > 15 | – | –
36 | Cc1cc(C)c(OC[C@H](O)CNc2cc[nH]c(=O)c2-c2nc3cc4c(cc3[nH]2)C(=O)N(C2CCN(C)CC2)C4=O)c(CS(C)(=O)=O)c1 [compound 84] | > 15 | – | –
37 | Cc1cc(C)n(C[C@H](O)CNc2cc[nH]c(=O)c2-c2nc3cc4c(cc3[nH]2)C(=O)N(C2CCN(C)CC2)C4=O)n1 [compound 92] | > 15 | – | –
38 | CN1CCC(N2C(=O)c3cc4nc(-c5c(N[C@H](CO)Cc6c[nH]cn6)cc[nH]c5=O)[nH]c4cc3C2=O)CC1 [compound 2] | 5 to 15 | – | –
